Experimental data as given in patent US20220142913A1, “TRANSDERMAL DELIVERY FORMULATIONS” (Albert Einstein College of Medicine, priority 2020, published 2022).

Assay: Loading potential / solubility of low solubility agents in PEG400/myristic acid vehicles, nitrite saturated PEG400 and water
Assay type: physicochemical
Details: for dissolution in Sample 3 solvent system: Sample 3: 30 ml PEG400 + 0.75 grams MA; for dissolved material in aqueous solution: aqueous sample
Procedure: Vehicles for loading the active ingredient were prepared as illustrated in samples 1-4. Myristic acid (solid flakes) was dissolved in PEG400 upon warming the mixture in a warm water bath. Shaking accelerated the formation of the resulting clear solution. The following four concentrations of myristic acid (MA) in PEG400 were prepared and evaluated. Samples 1, 2, 3 and 4 were all clear solutions when the samples were allowed to attain ambient temperatures.
The samples as vehicles were loaded with NO enhancing agent. […] Samples 1 and 2 were initially liquid but formed a solid uniform gel over a period of several hours. Sample 3 was prepared by dissolving 0.75 grams of MA in 30 ml's of PEG400 and heating in a water bath (˜60-80 C) for ˜15 minutes. Sample 4 was prepared by dissolving 2.25 grams of MA in 30 mls of PEG400 and heating in a water bath (˜60-80 C) for ˜15 minutes. Both sample 3 and sample 4 were uniform solutions when the heating cycle was finished. Upon cooling sample 3 remained liquid whereas sample 4 formed a uniform gel. […]
The Sample 3 solvent system was also tested as a vehicle for loading potential with the following low solubility reagents using the above method: quercetin, berberine, N-acetyl cysteine amide (NACA) and N-acetyl cysteine ethyl ester (NAC-ethylester).
The solutions of the two lipophilic NAC derivatives were prepared using sodium nitrite saturated PEG400, resulting in a clear solution. […] NAC is water soluble and the two derivatives are marginally soluble in water. The two solutions were then treated with several drops of acetic acid to trigger the formation of nitrous acid from the nitrite which can then nitrosate the reactive thiol on both of the NAC derivatives. The solutions turned pink indicative of S-nitrosothiol formation. The solutions remained pink for several days. The corresponding aqueous solutions lost color within hours. The use of nitrite saturated PEG400 allows for formulations that can be used to generate NO and S-nitrosothiols through mixing with reagents that acidify the mixture. A double frangible pouch incorporated into a patch may be used for a sustained NO delivery vehicle suitable for topical and transdermal applications.

For CCOC(=O)[C@H](CS)NC(C)=O [NAC-ethylester, N-acetyl cysteine ethyl ester], the “dissolution in Sample 3 solvent system” value was “substantial dissolution”.

For N-acetyl cysteine amide [NACA], the “dissolution in Sample 3 solvent system” value was “substantial dissolution”.

For CC(=O)N[C@@H](CS)C(=O)O [NAC, N-acetyl cysteine], the “solubility in sodium nitrite saturated PEG400” value was “limited solubility” and the solubility in water was “water soluble”.

For O=c1c(O)c(-c2ccc(O)c(O)c2)oc2cc(O)cc(O)c12 [quercetin], the solubility of quercetin was 200-300 mg in 30 ml, the “solubilization in Sample 3” value was “high degree of solubilization” and the “dissolution in Sample 3 solvent system” value was “substantial dissolution”. For the same compound, the “dissolved material in aqueous solution” value was “minimal dissolved material”.

For COc1cc(/C=C/C(=O)CC(=O)/C=C/c2ccc(O)c(OC)c2)ccc1O [Curcumin 95, curcumin], the “dissolving of the added curcumin” value (1.5 grams Curcumin 95 in Samples 1, 2, 3 (30 ml PEG400 + myristic acid), warmed, cooled to ambient) was “almost all of the added curcumin”.

For COc1ccc2cc3[n+](cc2c1OC)CCc1cc2c(cc1-3)OCO2 [berberine], the “dissolution in Sample 3 solvent system” value was “substantial dissolution” and the “dissolved material in aqueous solution” value was “minimal dissolved material”.

With COc1cc(/C=C/C(=O)CC(=O)/C=C/c2ccc(O)c(OC)c2)ccc1O [curcumin] the “dissolution in water (colour of liquid phase)” value (same amount of curcumin in same volume of water (3 g in 30 ml)) was “almost no color in the liquid phase”.
